Results as given in publication PMC7897990, “TriTOX: A novel Trichomonas vaginalis assay platform for high-throughput screening of compound libraries” (International Journal for Parasitology: Drugs and Drug …, 2021).
Like-named read-outs stand apart in the source and are kept apart here. Positions of bridges follow the written chain, without caps; N, C: chain ends. Non-standard residues stand in square brackets, D forms with d. Residues, ends and D or L forms follow the SMILES beside them. *: point of attachment. NMePhe(4-NMe2) = CN[C@@H](Cc1ccc(N(C)C)cc1)C(=O)O; Pip(4-oxo) = O=C1CCN[C@H](C(=O)O)C1; Picolinoyl(3-OH) = O=C(c1ncccc1O)*; Phg = N[C@H](C(=O)O)c1ccccc1; dAbu = CC[C@@H](N)C(=O)O

System: Trichomonas vaginalis G3 trophozoites
Conditions: for T.vaginalis_Absorbance_Rep1: replicate 1, raw absorbance; for T.vaginalis_Absorbance_Rep2: replicate 2, raw absorbance; for T. vaginalis HTS result in words: 384-well, 25 μL, 10,000 cells/mL, 48 h, biological duplicates, hit = >50% inhibition
[1] = HTS, parasite screen at 1 µg/mL, replicate 1
[2] = HTS, parasite screen at 1 µg/mL
[3] = HTS, parasite screen at 1 µg/mL, replicate 2
[4] = HTS replicate 1, parasite screen 1 µg/mL
[5] = HTS replicate 2, parasite screen 1 µg/mL

Compound `COC1=C(O)c2c(O)cc(C)c3c(O)cc(O)c(c23)C1=O` [Funalenone] has a T.vaginalis_%inb_Rep1 [1] of 14.50%, a T.vaginalis_Absorbance_Rep1 [2] of 0.988 and a T.vaginalis_%inb_Rep2 [3] of 12.96%. The T.vaginalis_Absorbance_Rep2 [2] was 0.837.
`CCC(O)C(C)(O)C1OC(=O)C(C)C(OC2CC(C)(OC)C(O)C(C)O2)C(C)C(OC2OC(C)CC(N(C)C)C2O)C2(C)CC(C)=C(O2)C1C` (centres unmarked) [Pseudoerythromycin A enol ether] gave a T.vaginalis_%inb_Rep1 [4] of 13.84% and a T.vaginalis_%inb_Rep2 [5] of 5.58%.
`COc1ccc([C@@]2(O)c3c(ccc(/C=C/[C@]4(C)CCC(C)(C)CO4)c3O)NC(=O)[C@@H]2OC)cc1` [Penigequinolone A] was tested, and the T.vaginalis_%inb_Rep1 [4] was 16.23% and the T.vaginalis_%inb_Rep2 [5] was 11.87%.
With `Cc1cc(=O)n2c3c(c4c(cc13)c(CO)cc(=O)n4C)OC2` [Nybomycin] the T.vaginalis_%inb_Rep1 [4] was 11.05% and the T.vaginalis_%inb_Rep2 [5] was 10.26%.
With `CO[C@H]1C[C@H](O[C@H]2[C@H](C)O[C@@H](O[C@@H]3/C(C)=C/C[C@@H]4C[C@@H](C[C@]5(C=C[C@H](C)[C@@H](C6CCCCC6)O5)O4)OC(=O)[C@H]4C=C(C)[C@@H](O)[C@H]5OC/C(=C\C=C\[C@@H]3C)[C@@]45O)C[C@@H]2OC)O[C@@H](C)[C@@H]1O` [Doramectin, epi-] the T.vaginalis_%inb_Rep1 [1] was 16.13%, the T.vaginalis_Absorbance_Rep1 [2] was 1.02 and the T.vaginalis_%inb_Rep2 [3] was 15.52%. For the same compound, the T.vaginalis_Absorbance_Rep2 [2] was 0.877.
`C[C@@H]1[C@H](O)[C@@H](C)/C=C/C=C/CC/C=C/C=C/C=C/C=C/[C@H](O[C@@H]2O[C@H](C)[C@@H](O)[C@H](N)[C@@H]2O)C[C@@H]2O[C@](O)(C[C@@H](O)[C@H](O)CC[C@@H](O)C[C@@H](O)C[C@@H](O)CC(=O)O[C@H]1C)C[C@H](O)[C@H]2C(=O)O` [Nystatin A1] gave a T.vaginalis_%inb_Rep1 [4] of 11.66% and a T.vaginalis_%inb_Rep2 [5] of 11.87%.
Compound `CC(=O)OC1CCC2(C)C3=C(CCC2C1(C)C)C1(C)CCC(C(C)CCC=C(C)C)C1(C)CC3` (centres unmarked) [Euphol acetate] has a T.vaginalis_%inb_Rep1 [1] of 13.30%, a T.vaginalis_Absorbance_Rep1 [2] of 0.956 and a T.vaginalis_%inb_Rep2 [3] of 13.02%. It also gave a T.vaginalis_Absorbance_Rep2 [2] of 0.8.
`CC[C@H](C)[C@@H]1OC(=O)C(C)(C)[C@@H](O)[C@@H](Cc2ccccc2)OC(=O)[C@H](C(C)C)OC(=O)[C@@H](NC(=O)c2cccc(NC=O)c2O)[C@H](C)OC1=O` [Neoantimycin] was tested, and the T.vaginalis_%inb_Rep1 [4] was 13.59% and the T.vaginalis_%inb_Rep2 [5] was 11.67%.
With `CN[C@@H]1C[C@H]2O[C@@](C)([C@@H]1OC)n1c3ccccc3c3c4c(c5c6ccccc6n2c5c31)C(=O)NC4=O` [7-oxostaurosporine, reference compound] the “T. vaginalis HTS result in words” value was “active analogues”.
Compound `CC[C@H]1CCC[C@H](O)[C@@H](C)C(=O)C2=C[C@H]3[C@@H]4C[C@H](O)C[C@H]4CC[C@H]3[C@@H]2CC(=O)O1` [Dihydrospinosyn A aglycone] has a T.vaginalis_%inb_Rep1 [1] of 13.89%, a T.vaginalis_Absorbance_Rep1 [2] of 0.967 and a T.vaginalis_%inb_Rep2 [3] of 12.58%. It also gave a T.vaginalis_Absorbance_Rep2 [2] of 0.794.
`CCC(C)C1NC(=O)c2c1n(C)c1ccccc1c2=O` (centres unmarked) [Quinolactacin A1] showed a T.vaginalis_%inb_Rep1 [4] of 10.96% and a T.vaginalis_%inb_Rep2 [5] of 16.33%.
With `CC1=C[C@H]2C(=O)O[C@H]3C[C@@H](C/C=C(\C)[C@@H](O)[C@@H](C)/C=C/C=C4\CO[C@H]([C@@H]1O)[C@@]42O)O[C@@]1(C=C[C@H](C)[C@@H](C2CCCCC2)O1)C3` [Doramectin aglycone] the T.vaginalis_%inb_Rep1 [1] was 13.62%, the T.vaginalis_Absorbance_Rep1 [2] was 0.962 and the T.vaginalis_%inb_Rep2 [3] was 12.44%. For the same compound, the T.vaginalis_Absorbance_Rep2 [2] was 0.792.
With `O=c1c2cccn2c(=O)c2cccn12` [Pyrocoll] the T.vaginalis_%inb_Rep1 [4] was 15.47% and the T.vaginalis_%inb_Rep2 [5] was 11.29%.
`CC[C@H]1NC(=O)[C@@H](NC(=O)c2ncccc2O)[C@@H](C)OC(=O)[C@H](c2ccccc2)NC(=O)[C@@H]2CC(=O)CCN2C(=O)[C@H](Cc2ccc(N(C)C)cc2)N(C)C(=O)[C@@H]2CCCN2C1=O` [Virginiamycin B] ({Picolinoyl(3-OH)}-T[dAbu]P[NMePhe(4-NMe2)][Pip(4-oxo)][Phg]; ester 1-C) gave a T.vaginalis_%inb_Rep1 [1] of 8.39% and a T.vaginalis_%inb_Rep2 [3] of 11.09%.
With `COc1cc(O)c2c(c1)/C=C/CC(O)C(O)C(=O)/C=C/CC(C)OC2=O` (centres unmarked) [Oxozeaenol, (5E)-7-] the T.vaginalis_%inb_Rep1 [4] was 8.42% and the T.vaginalis_%inb_Rep2 [5] was 13.66%.
Compound `COc1c2c(cc3c1c(=O)c1ccccc1n3C)OCO2` [Evoxanthine] has a T.vaginalis_%inb_Rep1 [1] of 15.29%, a T.vaginalis_Absorbance_Rep1 [2] of 0.993 and a T.vaginalis_%inb_Rep2 [3] of 5.42%. For the same compound, the T.vaginalis_Absorbance_Rep2 [2] was 0.695.
`NC(=O)c1cccc2nc3ccccc3nc12` [Oxychloroaphine] gave a T.vaginalis_%inb_Rep1 [4] of 11.41% and a T.vaginalis_%inb_Rep2 [5] of 13.92%.
`COc1ccc(C[C@H]2NC[C@H](O)[C@H]2OC(C)=O)cc1` [anisomycin, reference compound] was tested, and the “T. vaginalis HTS result in words” value was “supported the anti-trichomonal activity”.
With `Cc1c2c(c(O)c3c(O)cccc13)C(=O)C1(O)C(O)=C(C(N)=O)C(=O)C(N(C)C)C1C2.Cl` (centres unmarked) [Epianhydrotetracycline hydrochloride] the T.vaginalis_%inb_Rep1 [1] was 8.78%, the T.vaginalis_Absorbance_Rep1 [2] was 0.872 and the T.vaginalis_%inb_Rep2 [3] was 1.74%. It also gave a T.vaginalis_Absorbance_Rep2 [2] of 0.644.
Work on `CN1CCC2(c3cccc4c3NC3N(C)CCC43c3cccc4c3NC3N(C)CCC43C34CCN(C)C3Nc3c(C56CCN(C)C5Nc5ccccc56)cccc34)c3ccccc3NC12` (centres unmarked) [Psychotridine] yielded a T.vaginalis_%inb_Rep1 [4] of 9.23% and a T.vaginalis_%inb_Rep2 [5] of 6.15%.
Compound `CCC1OC2(CCC1C)CC1CC(CC=C(C)CC(C)C=CC=C3COC4C(O)C(C)=CC(C(=O)O1)C34O)O2` (centres unmarked) [Milbemycin A4] has a T.vaginalis_%inb_Rep1 [4] of 12.17% and a T.vaginalis_%inb_Rep2 [5] of 12.96%.
With `COC(=O)c1cc(O)cc(OC)c1C(=O)c1c(O)cc(C)cc1OC` [Monomethylsulochrin] the T.vaginalis_%inb_Rep1 [4] was 8.42% and the T.vaginalis_%inb_Rep2 [5] was 11.03%.
Work on `CO[C@H]1C[C@H](O[C@@H]2/C(C)=C/C[C@@H]3C[C@@H](C[C@]4(C=C[C@H](C)[C@@H](C5CCCCC5)O4)O3)OC(=O)[C@@H]3C=C(C)[C@@H](O)[C@H]4OC/C(=C\C=C\[C@@H]2C)[C@]43O)O[C@@H](C)[C@@H]1O` [Doramectin monosaccharide] yielded a T.vaginalis_%inb_Rep1 [1] of 13.89%, a T.vaginalis_Absorbance_Rep1 [2] of 0.967 and a T.vaginalis_%inb_Rep2 [3] of 12.80%. For the same compound, the T.vaginalis_Absorbance_Rep2 [2] was 0.797.
`C[C@@H](O)CCCCCCCCCCCCCc1cc(O)cc(O)c1C(=O)O` [Phanerosporic acid] showed a T.vaginalis_%inb_Rep1 [4] of 18.46% and a T.vaginalis_%inb_Rep2 [5] of 9.81%.
Compound `O=C(O)C1CSC(c2ccccc2O)=N1` (centres unmarked) [Dihydroaeruginoic acid] has a T.vaginalis_%inb_Rep1 [1] of 11.15%, a T.vaginalis_Absorbance_Rep1 [2] of 0.916 and a T.vaginalis_%inb_Rep2 [3] of 12.87%. For the same compound, the T.vaginalis_Absorbance_Rep2 [2] was 0.798.
`COc1cc2c(oc(=O)c3cc(C)cc(OC)c32)c2c(C3OC(C(C)O)C(O)C3O)ccc(O)c12` (centres unmarked) [Gilvocarcin M] showed a T.vaginalis_%inb_Rep1 [1] of 10.14%, a T.vaginalis_Absorbance_Rep1 [2] of 0.902 and a T.vaginalis_%inb_Rep2 [3] of 13.92%. It also gave a T.vaginalis_Absorbance_Rep2 [2] of 0.852.
`CCC1NC(=O)C(NC(=O)c2ncccc2O)C(C)OC(=O)C(c2ccccc2)NC(=O)C2CC(=O)CCN2C(=O)C(Cc2ccccc2)N(C)C(=O)C2CCCN2C1=O` (centres unmarked) [Virginiamycin S1] gave a T.vaginalis_%inb_Rep1 [1] of 9.96% and a T.vaginalis_%inb_Rep2 [3] of 3.72%.
For `CCC1OC2(CCC1C)CC1CC(CC=C(C)CC(C)C=CC=C3COC4C(=NO)C(C)=CC(C(=O)O1)C34O)O2` (centres unmarked) [Milbemycin A4 oxime], the T.vaginalis_%inb_Rep1 [4] was 13.39% and the T.vaginalis_%inb_Rep2 [5] was 13.53%.
`COc1ccc2nc(C(=O)N[C@@H]3COC(=O)[C@H](C(C)(C)O)N(C)C(=O)CN(C)C(=O)CNC(=O)[C@@H]4[C@@H](OC(C)=O)CC=NN4C(=O)[C@H](NC(=O)c4nc5ccc(OC)cc5cc4O)COC(=O)[C@H](C(C)(C)O)N(C)C(=O)CN(C)C(=O)CNC(=O)[C@@H]4[C@@H](OC(C)=O)CC=NN4C3=O)c(O)cc2c1` [luzopeptin A, reference compound] was tested, and the “T. vaginalis HTS result in words” value was “partial hits”.
Compound `CO[C@H]1C[C@H](O[C@H]2[C@H](C)O[C@@H](O[C@@H]3/C(C)=C/C[C@@H]4C[C@@H](C[C@]5(C=C[C@H](C)[C@@H](C6CCCCC6)O5)O4)OC(=O)[C@@H]4C=C(C)[C@@H](O)[C@H]5OC/C(=C\C=C\[C@@H]3C)[C@]54O)C[C@@H]2OC)O[C@@H](C)[C@@H]1O` [Doramectin] has a T.vaginalis_%inb_Rep1 [1] of 11.20%, a T.vaginalis_Absorbance_Rep1 [2] of 0.917 and a T.vaginalis_%inb_Rep2 [3] of 11.21%. The T.vaginalis_Absorbance_Rep2 [2] was 0.775.
Work on `CC(=O)c1c(O)cc(O)c(C(C)=O)c1O` [Diacetylphloroglucinol] yielded a T.vaginalis_%inb_Rep1 [1] of 9.32%, a T.vaginalis_Absorbance_Rep1 [2] of 0.882 and a T.vaginalis_%inb_Rep2 [3] of 10.70%. For the same compound, the T.vaginalis_Absorbance_Rep2 [2] was 0.768.
With `CC(=O)c1c(O)c(C(C)=O)c(O)c(C(C)=O)c1O` [Triacetylphloroglucinol] the T.vaginalis_%inb_Rep1 [1] was 10.38% and the T.vaginalis_%inb_Rep2 [3] was 10.12%.
Compound `Cc1ccc2c(c1O)C(=O)c1c(cc(O)c(C(=O)O)c1C)[C@]2(C)OO[C@@]1(C)c2cc(O)c(C(=O)O)c(C)c2C(=O)c2c1ccc(C)c2O` [Oxanthromicin, (+)] has a T.vaginalis_%inb_Rep1 [4] of 15.31% and a T.vaginalis_%inb_Rep2 [5] of 5.45%.
In the case of Milbemycin oxime, the T.vaginalis_%inb_Rep1 [4] is reported as 12.53% and the T.vaginalis_%inb_Rep2 [5] is reported as 12.96%.
`COC1C(OC(N)=O)C(O)C(Oc2ccc3c(O)c(NC(=O)c4ccc(O)c(CCC(C)C)c4)c(=O)oc3c2C)OC1(C)C` (centres unmarked) [Dihydronovobiocin] was tested, and the T.vaginalis_%inb_Rep1 [1] was 2.80%, the T.vaginalis_Absorbance_Rep1 [2] was 0.761 and the T.vaginalis_%inb_Rep2 [3] was 4.84%. It also gave a T.vaginalis_Absorbance_Rep2 [2] of 0.687.
For `COc1c(Cl)c(O)c(Cl)c(C)c1C(=O)O[C@H]1[C@H](O)C[C@H](O[C@H]2[C@@H](O)CC(=O)O[C@@H]2C)O[C@@H]1C` [Flambalactone], the T.vaginalis_%inb_Rep1 [1] was 13.89%, the T.vaginalis_Absorbance_Rep1 [2] was 0.967 and the T.vaginalis_%inb_Rep2 [3] was 13.52%. It also gave a T.vaginalis_Absorbance_Rep2 [2] of 0.807.
In the case of `CN[C@@H]1C[C@H]2O[C@@](C)([C@@H]1OC)n1c3ccccc3c3c4c(c5c6ccccc6n2c5c31)C(=O)NC4` [staurosporine, reference compound], the “T. vaginalis HTS result in words” value is reported as “supported the anti-trichomonal activity”.
